Measurements as given in US20260317356A1, “SMALL MOLECULE MODULATORS OF OGG1” (AZKARRA THERAPEUTICS, INC., priority 2023, published 2026).

Experiments:
[1] = molecular target: T1, nLucOGG1 in HeLa cells (Homo sapiens, UniProt O15527); test: Cellular Thermal Shift Assay to measure compound affinity for nLucOGG1 in HeLa cells (CETSA DTm); type: cell-based; details: 10 μM compound, 37° C. 60 min, Tm vs DMSO control
T1 construct: thermal shift read by NanoGlo luminescence
Procedure: Biological Example 2: Cellular Thermal Shift Assay to Measure Compound Affinity for ^nLucOGG1 in HeLa Cells (CETSA DTm)
Cell Culture and Transfection of Hela Cells with ^nLucOGG1: For all tests, Hela cells were maintained in growth medium, Dulbecco's Minimum Eagle Medium (Multicell: Cat #319-005-CL) supplemented with 10% heat-inactivated fetal bovine serum (Gibco: Cat #12484-028) at 37° C. and 5% CO2 in a humidified tissue culture incubator. Transient transfections were performed using the Lonza 4-D Nucleofector X unit according to the manufacturer's protocol (Lonza Cat #V4XC-1024). Briefly, for each transfection, 1.2×10^6 cells were centrifuged at 1000 RPM for 5 minutes at room temperature before being diluted in 100 μL SE solution containing 18% v/v supplement and 1.5 μg pNF1-N-empty or pNF1-N-OGG1a vector. The total volume was transferred to a 100 μL nucleofection cuvette prior to transfer to the apparatus where HeLa cell nucleofection protocol CN-114 was executed. Following nucleofection, 500 μL complete media was added to the cells in the cuvette before transferring to a 6-well dish containing 1.5 mL of complete media. Cells were left to incubate for 48 hours before performing all cellular thermal shift experiments.
Cellular Thermal Shift Assays for Target Engagement (CETSA): Forty-eight hours following nucleofection, cells were washed once with DPBS−/−(Multicell: Cat #311-425-CL) and lifted with 0.25% Trypsin-EDTA (Multicell: Cat #325-043-CL) prior to dilution in growth medium and centrifugation at 1000 RPM for 5 minutes at room temperature. The resulting cell pellet was then resuspended in growth medium, cells were counted and the volume adjusted to 500 k cells/mL (2×).
For delta Tm determination, OGG1 inhibitor compounds were dissolved in DMSO to a final working concentration of 20 mM. Working solutions were then diluted in complete media to 20 μM or 0.1% DMSO for the vehicle control (2×). 2×OGG1 inhibitor compound solutions or 0.1% DMSO control were then pre-dispensed into MicroAmp Optical 96-well PCR reaction plates (Applied Biosystems: Cat #4346906) at 50 μL/well. Next, 50 μL or 25 k cells/well from the 2× cell suspension was added to the pre-loaded PCR plates. All plates were prepared as duplicates, covered with adhesive plate sealers (Perkin Elmer: Cat #6050185) and left to incubate at 37° C. for 60 minutes. During incubation, sufficient NanoGlo luciferase assay reagents (Promega: Cat #N1120) were left to equilibrate to room temperature in the dark. Immediately before heating the plates, the NanoGlo substrate was mixed with the NanoGlo buffer at a 1:50 ratio. The thermal cycler (Veriti 96-Well Thermal Cycler, Thermo Fisher Scientific) was allowed to reach the designated temperature prior to placement of the PCR plate into the heating block. For Tm determination experiments, duplicate plates containing a fixed concentration of test compound (10 μM final) as well as vehicle control were prepared to perform a 12-point temperature gradient spanning 37-70° C. for 3 minutes. Therefore, two thermal cycler protocols were set up covering two 6-step temperature gradients ranging from 37-52° C. and 52-70° C. Plates were then allowed to cool at room temperature for 5 minutes after the heat treatment followed by transfer of 75 μL of the reaction into a 96-well white polystyrene microplate (Corning: Cat #CLS3903) and addition of 75 μL of the prepared NanoGlo mixture. Microplates were then left to shake in the dark for 5 minutes before total luminescence was measured on a SpectraMax IX3 plate reader. The luminescence value obtained at each temperature was normalized to the luminescence obtained at 37° C. and the ratio obtained was plotted against the temperature. A Boltzman Sigmoidal non-linear regression was applied to the resulting data to determine Tm values and the difference between the Tm value for a given OGG1 inhibitor relative to the DMSO vehicle control was the delta Tm.

[2] = molecular target: T2, hOGG1 (Homo sapiens, UniProt O15527); test: Surface Plasma Resonance with hOGG1 to measure compound affinity (OGG1 SPR Kd); type: binding; design: Protein His-hOGG1 (12-323) was prepared; details: Biacore T-200, immobilized his-tagged OGG1; pH 7.4; 2% DMSO; single-cycle kinetics
Procedure: Surface Plasma Resonance with hOGG1 to Measure Compound Affinity (OGG1 SPR Kd); All the SPR studies were performed on a Biacore T-200 instrument (Cytiva life sciences) using series S NTA sensor chip (cat #BR-1005-32, Cytiva life sciences). Recombinant his-tagged OGG1 (mol. wt. 36003; ChemPartner, Shanghai, China) was immobilized on NTA sensor chip via Ni^2+/NTA chelation using NTA reagent kit (Cytiva life sciences; cat #289950) as per manufacturer's recommended protocol. The running buffer during immobilization contained HEPES (20 mM, pH 7.4), 150 mM NaCl, 0.5 mM TCEP (tris(2-carboxyethyl)phosphine), and 0.005% Tween-20. NTA sensor chip (experimental cell) was first conditioned by injecting regeneration solution (350 mM EDTA, flow rate 30 μL/min, 2 injections 60 each). Additional wash with 50 mM NaOH was used whenever the chip was regenerated (flow rate 30 μL/min, 1 injection of 60 s). The sensor chip was then activated with 0.5 mM NiCl2 (flow rate 10 μL/min, 2 injection of 60 s, leading to a baseline increase of ~40 RU), and the excess Ni^2+ was removed using immobilization buffer containing 3 mM EDTA (flow rate 10 μL/min, 1 injection of 60 s). Finally, OGG1 (diluted to 6.2 μg/mL in running buffer) was injected on the activated sensor chip at a flow rate of 10 μL/min until immobilization level reached ~6000 RU. Any loosely bound protein was removed by passing the immobilization buffer overnight at 20 μL/min. At this point, the drift in baseline was ~0.01 RU/s and the final immobilization level was ~2500 RU. Reference cell was left untreated. SPR binding experiments were performed using binding buffer (20 mM HEPES (pH 7.4), 150 mM NaCl, 0.5 mM TCEP, 0.005% Tween-20, and 2% DMSO) at a flow rate of 30 μL/min. Single-cycle kinetics approach was used for binding analysis which consisted of sequential injections of increasing concentrations of test compound (a 3-fold serial dilution with 5 concentrations; highest 750 or 1500 nM; with final DMSO concentration at 2%) over the immobilized protein without regeneration step between each sample injection. Each injection was 45 seconds long (contact time), followed by a final dissociation of 600 sec. The Biacore T-200 Evaluation software 3.1 (GE Healthcare) was used to determine kinetic parameters from SPR data. All the reported sensograms were reference subtracted and corrected for refractive index contributions from solvent using 8-point solvent correction (1.4 to 2.8% DMSO in binding buffer). Data were fit to both steady state and 1:1 kinetic model to obtain Kon, Koff and binding affinity (Kd).

[3] = molecular target: T2, hOGG1; test: Biochemical fluorescence assay to measure enzymatic activity of hOGG1 (OGG1/APEX IC50); design: Protein His-hOGG1 (12-323) was prepared; His (N); host or cells: E. coli; details: 1 nM OGG1+2 nM APEX+6 nM dsDNA (8-oxo-dG substrate); pH 7.5; RT 40 min; read-out: OGG1/APEX IC50
Procedure, shortened: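 Coupled glycosylase/AP-endonuclease read-out: 8-oxo-dG-containing dsDNA (6 nM) cleaved by 1 nM His-hOGG1 (12-323) plus 2 nM APEX1 over 40 min at room temperature, after 20 min enzyme–compound preincubation; buffer 20 mM Tris pH 7.5, 100 mM KCl, 0.1% BSA, 0.01% Tween. IC50 comes from sigmoidal 3-parameter fitting of % inhibition derived from TAMRA signal.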

T2 sequence (O15527 12-323): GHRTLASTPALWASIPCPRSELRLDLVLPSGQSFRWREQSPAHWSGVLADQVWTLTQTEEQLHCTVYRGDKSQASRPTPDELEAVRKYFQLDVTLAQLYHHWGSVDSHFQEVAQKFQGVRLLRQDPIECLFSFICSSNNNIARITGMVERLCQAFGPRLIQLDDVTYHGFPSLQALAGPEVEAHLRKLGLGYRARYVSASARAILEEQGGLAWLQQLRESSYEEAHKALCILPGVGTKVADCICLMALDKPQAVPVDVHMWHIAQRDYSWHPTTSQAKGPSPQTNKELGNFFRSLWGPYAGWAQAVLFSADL
T1 sequence (O15527 whole entry): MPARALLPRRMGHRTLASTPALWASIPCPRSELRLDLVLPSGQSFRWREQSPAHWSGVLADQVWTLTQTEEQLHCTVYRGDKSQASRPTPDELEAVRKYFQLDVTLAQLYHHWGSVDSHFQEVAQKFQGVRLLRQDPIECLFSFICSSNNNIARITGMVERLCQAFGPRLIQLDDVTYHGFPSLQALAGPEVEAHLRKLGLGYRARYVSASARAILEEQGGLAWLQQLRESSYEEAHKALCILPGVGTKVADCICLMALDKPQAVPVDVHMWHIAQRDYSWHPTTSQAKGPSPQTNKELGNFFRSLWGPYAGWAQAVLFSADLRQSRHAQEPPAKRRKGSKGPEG

Structure (SMILES)	ΔTm at 10 µM [1] [°C]	Kd [2] [nM]	IC50 [3] [nM]
COc1ccc(NC(=O)[C@]2(C)CC[C@@H](N3Cc4c(C)ccc(OC)c4NC3=O)CC2)cc1C (single isomer, unassigned) [Example 10, (1r,4r)-N-(3-methyl-4-methoxyphenyl)-4-(8-methoxy-5-methyl-2-oxo-1,2-dihydroquinazolin-3(4H)-yl)-1-methylcyclohexanecarboxamide]	≤ 6	> 1000	–
COc1cc(NC(=O)[C@]2(C)CC[C@@H](N3Cc4c(C)ccc(OC)c4NC3=O)CC2)ccc1C [Example 12, (1r,4r)-N-(3-Methoxy-4-methylphenyl)-4-(8-methoxy-5-methyl-2-oxo-1,2-dihydroquinazolin-3(4H)-yl)-1-methylcyclohexanecarboxamide]	≤ 6	> 1000	–
COc1ccc(NC(=O)[C@]2(C)CC[C@@H](N3Cc4c(C)ccc(OC)c4NC3=O)CC2)cc1C#N (single isomer, unassigned) [Example 8, (1r,4r)-N-(3-cyano-4-methoxyphenyl)-4-(8-methoxy-5-methyl-2-oxo-1,2-dihydroquinazolin-3(4H)-yl)-1-methylcyclohexanecarboxamide]	≤ 6	> 1000	–
COc1ccc(NC(=O)[C@]2(C)CC[C@@H](N3Cc4c(C)ccc(OC)c4NC3=O)CC2)cc1Cl (single isomer, unassigned) [Example 6, (1r,4r)-N-(3-Chloro-4-methoxyphenyl)-4-(8-methoxy-5-methyl-2-oxo-1,2-dihydroquinazolin-3(4H)-yl)-1-methylcyclohexanecarboxamide]	≤ 6	> 1000	–
COc1cc(NC(=O)[C@H]2CC[C@@H](N3Cc4c(C)cnc(CNS(C)(=O)=O)c4NC3=O)CC2)ccc1C [Example 18, (1s,4s)-N-(3-Methoxy-4-methylphenyl)-4-(5-methyl-8-(methylsulfonamidomethyl)-2-oxo-1,2-dihydropyrido[3,4-d]pyrimidin-3(4H)-yl)cyclohexanecarboxamideoxamide]	–	–	< 100
COc1ccc(NC(=O)[C@H]2CC[C@@H](N3Cc4c(C)cccc4NC3=O)CC2)cc1C [Example 87, (1s,4s)-N-(4-methoxy-3-methylphenyl)-4-(5-methyl-2-oxo-1,2-dihydroquinazolin-3(4H)-yl)cyclohexanecarboxamide]	–	–	< 100

Next, values leading:

ΔTm at 10 µM [1] [°C]	Kd [2] [nM]	IC50 [3] [nM]	Structure (SMILES)
–	10 to 100	< 100	Cc1cc(NCCN(C)C)cc2c1CN([C@H]1CC[C@@H](C(=O)Nc3cc4ccccc4[nH]3)CC1)C2=O [Example 271, (1s,4s)-4-(6-(2-(dimethylamino)ethylamino)-4-methyl-1-oxoisoindolin-2-yl)-N-(1H-indol-2-yl)cyclohexanecarboxamide]
> 10	–	–	Cc1cc(NCCN(C)C)cc2c1CN([C@H]1CC[C@@H](C(=O)Nc3cc4ccccc4[nH]3)CC1)C2=O [Example 132, (1s,4s)-4-(6-((2-(Dimethylamino)ethyl)amino)-4-methyl-1-oxoisoindolin-2-yl)-N-(1H-indol-2-yl)cyclohexane-1-carboxamide]
–	–	< 100	COc1cc(NC(=O)[C@H]2CC[C@@H](N3Cc4c(Br)cc(NC5CNC5)cc4C3=O)CC2)ccc1C [Example 180, (1s,4s)-4-(6-(Azetidin-3-ylamino)-4-bromo-1-oxoisoindolin-2-yl)-N-(3-methoxy-4-methylphenyl)cyclohexanecarboxamide]
